Test results reported in PubChem BioAssay (NCI).
Values joined by “and” are separate entries in the source; they are usually repeats but may differ in a detail not shown here. Equal entries are not always repeated.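 In this assay, cells in 96-well plates receive the compound at five concentrations for 48 hours. Endpoints are linearly interpolated between the surrounding concentrations. GI50 is the concentration that inhibits growth by half. Definition used: TGI = concentration required for complete inhibition of growth.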

What follows are molecules tested on MDA-MB-468 breast (assay: NCI anticancer screen, dose series, 48 h).

**Q.** `CC(=O)O[C@H](C[C@H](C(C)C)N(C)C(=O)[C@@H](NC(=O)[C@H]1CCCCN1C)C(C)C)c1nc(C(=O)N[C@@H](Cc2ccccc2)C[C@H](C)C(=O)O)c(CCOCc2ccccc2)s1` was tested. Which GI50 did it give?
**A.** The GI50 was less than 1 nM.

**Q.** What about the TGI of the same molecule?
**A.** Its TGI is greater than 10000 nM.

**Q.** Which GI50 does the source give for `COc1ccc2c(c1)C(C)Cc1c(ncnc1-n1c(C)nc3ccccc31)N2C` (stereo unspecified) here?
**A.** Its GI50 is 3050 nM.

**Q.** What about the TGI of the same molecule?
**A.** Its TGI is 20500 nM.

**Q.** How did the GI50 turn out when `CCn1c(CO)nn(-c2cc(O[C@@H](C)C(F)(F)F)c(C(=O)Nc3c(F)cccc3Cl)cc2F)c1=O` was run?
**A.** Its GI50 is 3280 nM.

**Q.** What about the TGI of the same molecule?
**A.** The TGI was greater than 72300 nM.

**Q.** `CN1CCN(c2ccc(Nc3nc(NCCCNS(=O)(=O)c4ccc(Cl)cc4)c4sccc4n3)cc2)CC1` was tested. Which GI50 did it give?
**A.** The GI50 was 4030 nM.

**Q.** And the TGI?
**A.** Its TGI is 16300 nM.

**Q.** With `O=C(COc1ccc(/C=C2\CSc3ccccc3C2=O)cc1)Nc1nccs1` as the molecule, how does the GI50 read?
**A.** Its GI50 is 1840 nM.

**Q.** And the TGI?
**A.** Its TGI is 4000 nM.

**Q.** For `CC(C)S(=O)(=O)c1ccccc1Nc1nc(Nc2cccc(NC(=O)CN)c2)ncc1Cl`, which GI50 is on record?
**A.** The GI50 was 99.9 nM.

**Q.** And the TGI?
**A.** Its TGI is 1860 nM.

**Q.** Which GI50 does the source give for `O=C(O)c1ccc(-n2c(=O)n(-c3cccc(C(F)(F)F)c3)c(=O)c3cc(-c4ccc(F)cc4F)ccc32)cc1` here?
**A.** The GI50 was 2160 nM.

**Q.** And the TGI?
**A.** The TGI was 5940 nM.

**Q.** How did the GI50 turn out when `COCCOc1cnc2ccn([C@H](C)c3nnc4c(F)cc(-c5cnn(C)c5)cn34)c(=O)c2c1` was run?
**A.** The GI50 was greater than 100000 nM.

**Q.** What about the TGI of the same molecule?
**A.** The TGI was greater than 100000 nM.

**Q.** `Cn1cc(C2=C(c3cn(CCCCCN)c4ccccc34)C(=O)NC2=O)c2ccccc21` was tested. Which GI50 did it give?
**A.** Its GI50 is 7540 nM.

**Q.** And the TGI?
**A.** Its TGI is greater than 25000 nM.

**Q.** How did the GI50 turn out when `COc1ccc(-c2oc3cc(O)c(OC)c(O)c3c(=O)c2OC)cc1O` was run?
**A.** The GI50 was 312 nM.

**Q.** What about the TGI of the same molecule?
**A.** Its TGI is 4140 nM.

**Q.** Which GI50 does the source give for `O=C(Nc1ccc(-n2cc(-c3ccncc3)c(-c3ccc(Cl)c(O)c3)n2)cc1)Nc1ccc(Cl)c(C(F)(F)F)c1` here?
**A.** Its GI50 is 1460 nM.

**Q.** And the TGI?
**A.** Its TGI is 3400 nM.

**Q.** What does the source list for `CCc1ccccc1NC(=O)c1sc2nc3c(cc2c1N)C(=O)CCC3`?
**A.** GI50: 235 nM; TGI: 44700 nM

**Q.** With `Cc1cc[c-]cc1.Fc1c[c-]c(-c2ccccn2)c(F)c1.[Pt+2].c1ccc(P(C[PH+](c2ccccc2)c2ccccc2)c2ccccc2)cc1` as the molecule, how does the GI50 read?
**A.** Its GI50 is 1550 nM.

**Q.** What about the TGI of the same molecule?
**A.** Its TGI is 5550 nM.

**Q.** Which GI50 does the source give for `COc1cc2c3c(n(CCCN4CCC[C@H]4C(N)=O)c(=O)c2cc1OC)-c1cc2c(cc1C3=O)OCO2` here?
**A.** The GI50 was 45.6 nM.

**Q.** And the TGI?
**A.** Its TGI is 316 nM.

**Q.** `NC(N)=NCCCCCNc1noc(Cc2c[nH]c3cc(Br)ccc23)n1` was tested. Which GI50 did it give?
**A.** Its GI50 is 2010 nM.

**Q.** What about the TGI of the same molecule?
**A.** Its TGI is 7040 nM.

**Q.** With `COc1ccc2ncn(-c3cc(O[C@H](C)c4ccccc4Cl)c(C(N)=O)s3)c2c1` as the molecule, how does the GI50 read?
**A.** The GI50 was 6.67 nM.

**Q.** What about the TGI of the same molecule?
**A.** The TGI was 40 nM.

**Q.** Which results are given for `O=[N+]([O-])c1ccc2c(c1)C(c1ccccc1Cl)=Nc1cn[nH]c1N2`?
**A.** GI50: 12500 nM; TGI: > 25000 nM

**Q.** Which GI50 does the source give for `CC(C)N=c1cc2n(-c3ccc(Cl)cc3)c3ccccc3nc-2cc1Nc1ccc(Cl)cc1` here?
**A.** The GI50 was 560 nM.

**Q.** And the TGI?
**A.** The TGI was 1670 nM.

**Q.** Which results are given for `C[C@]12CCc3nc(Nc4ccccc4)sc3C1=CC[C@@H]1[C@@H]2CC[C@]2(C)/C(=N/NC(N)=S)CC[C@@H]12`?
**A.** GI50: 1870 nM; TGI: 5380 nM

**Q.** Which results are given for `Cc1cc(N/N=C/c2nc(-c3ccc(Br)cc3)oc2C)c2cc(Br)ccc2n1`?
**A.** GI50: 1750 nM; TGI: 4850 nM

**Q.** What does the source list for `CCC(C)(C)c1ccc(OCCCCCCN2CCNCC2)cc1`?
**A.** GI50: 1760 nM; TGI: 3470 nM

**Q.** With `COc1cc(OC)c(S(N)(=O)=O)cc1C(=O)/C=C/c1ccc(Cl)cc1` as the molecule, how does the GI50 read?
**A.** Its GI50 is 1450 nM.

**Q.** What about the TGI of the same molecule?
**A.** Its TGI is 3080 nM.

**Q.** With `COc1cc(C2=C(c3cn(C)c4ccccc34)COC2=O)cc(OC)c1OC` as the molecule, how does the GI50 read?
**A.** The GI50 was 31.9 nM.

**Q.** And the TGI?
**A.** Its TGI is 380 nM.

**Q.** For `C=C1C(=O)O[C@H]2[C@H]1CC/C(COC(=O)c1ccc(Cl)nc1)=C\CC[C@@]1(C)O[C@@H]21`, which GI50 is on record?
**A.** The GI50 was 1210 nM.

**Q.** And the TGI?
**A.** The TGI was 3500 nM.

**Q.** With `COc1cc2ncn(-c3cc(OCCc4ccccc4)c(C(N)=O)s3)c2cc1OC` as the molecule, how does the GI50 read?
**A.** Its GI50 is 3350 nM.

**Q.** What about the TGI of the same molecule?
**A.** Its TGI is 24200 nM.

**Q.** Which results are given for `O=C(/C=C/c1cc(CN2CCOCC2)c(O)c2ncccc12)c1cc(CN2CCOCC2)c(O)c2ncccc12`?
**A.** GI50: 34.6 nM; TGI: 683 nM

**Q.** What does the source list for `C[C@]12CC[C@@H]3c4ccc(O)cc4CC[C@H]3[C@@H]1CC[C@@H]2NS(=O)(=O)c1cccc(F)c1`?
**A.** GI50: 2420 nM; TGI: 9250 nM

**Q.** Which results are given for `Cc1ccc(S(=O)(=O)NCCNc2nccc(-c3c(-c4ccc(F)cc4)nc4sccn34)n2)cc1`?
**A.** GI50: 4200 nM; TGI: > 100000 nM

**Q.** `CN(CCCNC(=O)Cc1ccc2ccc3cccc4ccc1c2c34)CCCNc1cc(-c2ccc3ccccc3c2)nc2ccccc12` was tested. Which GI50 did it give?
**A.** The GI50 was 1420 nM.

**Q.** What about the TGI of the same molecule?
**A.** Its TGI is 2750 nM.

**Q.** With `NC(CS/C(Cl)=C/Cl)C(=O)O` (stereo unspecified) as the molecule, how does the GI50 read?
**A.** Its GI50 is 2990 nM.

**Q.** What about the TGI of the same molecule?
**A.** The TGI was 16700 nM.

**Q.** Which GI50 does the source give for `Nc1nc(SN=Nc2ccc(S(N)(=O)=O)cc2)c2[nH]cnc2n1` here?
**A.** Its GI50 is 284 nM.

**Q.** What about the TGI of the same molecule?
**A.** Its TGI is 4110 nM.

**Q.** `COc1cc2c(c(OC)n1)[C@]1(O)[C@H](O)[C@H](CN(C)C)[C@@H](c3ccccc3)[C@]1(c1ccc(C#N)cc1)O2` was tested. Which GI50 did it give?
**A.** The GI50 was < 15.7 nM and 15.8 nM.

**Q.** What about the TGI of the same molecule?
**A.** Its TGI is 482 nM and 1440 nM.

**Q.** `O=C(Nc1ccc(Br)cc1)c1ccc(Cl)c(Cl)c1` was tested. Which GI50 did it give?
**A.** Its GI50 is 7500 nM.

**Q.** And the TGI?
**A.** Its TGI is greater than 100000 nM.
